In a melting point compilation (Tetko et al.; mined from patent text by program, amines drawn as free bases though some values may be those of a salt) one finds melting point data, which are given here for 64 compounds.

Molecules are shown by their SMILES.

As usually defined, the melting point is the temperature of the solid-liquid transition.

For the compound `O=C(O)Cc1cc(N=Nc2ccc(S(=O)(=O)Nc3ccccn3)cc2)ccc1O`, the melting point stood at 135 °C.
`COc1cccc(C2(C(N)=O)CCC3(CC2)OCCO3)c1` registered a melting point of 135 to 138 °C.
`CSc1ccc(C(CC2CCCO2)C(=O)O)cc1Cl` (centres undefined) had a melting point of 93 to 96 °C.
The same measure for `N#Cc1cccnc1N1CCN(CCCCc2ccc(-c3csc(N)n3)cc2)CC1`: 155 to 162 °C; for `Cc1c(F)c(NCc2ccccc2)cc2oc(=O)[nH]c12`: 204 to 206 °C; for `CCc1cccc2[nH]c(C(=O)O)cc(=O)c12`: 272 to 273 °C.
For the compound `Fc1ccc(-c2ccn(CC3CCNCC3)c2-c2ccncc2)cc1`, the melting point is 174 to 176 °C.
Compound `COC(=O)NC1CN(C(=O)Nc2ccc(OC(F)(F)F)cc2)NC1c1ccc(Cl)cc1` (centres undefined) displayed a melting point of 107 to 114 °C.
Consider `CCCc1nc2c(N)nc(C)c(C)c2n1CC(C)(C)NS(C)(=O)=O`, for which the melting point is 85 to 93 °C.
Turning to `C=Cc1ccc(S(=O)(=O)Nc2ncnc(OCCO)c2Cc2c(OC)cccc2OC)cc1`, the melting point was 138 to 139 °C.
To `O=C(CN1C(=O)CC1SCc1ccccc1)NCCCCCCc1ccccc1` (centres undefined) belongs 65 to 70 °C.
On to `COc1cc(N)c(Cl)cc1C(=O)NCC1CCN(CCC(=O)c2ccc(O)cc2)CC1`, for which the melting point was 191 to 193 °C.
In turn, `CCN(CC)CCOc1ccc(Nc2ncc3c(n2)N(C)C(=O)N(c2ccccc2Cl)C3)cc1` showed a melting point of 150 to 151 °C.
As to `OC1(c2ccc(Cl)cc2)CCCNC12CCCCC2` (centres undefined), the melting point was 158 to 164 °C.
Take `Cc1cc2c(=O)[nH][nH]c(=O)c2n1CC(C)C`: the melting point was in the range of 278 to 282 °C.
`O=C(NC(Cc1ccc(OCc2ccccc2)cc1)C(=O)O)c1cn2cc(-c3ccc(Cl)cc3Cl)ccc2n1` (centres undefined) registered a melting point of 237 to 239 °C.
In turn, `CCOC(=O)C1CCc2[nH]c3ccc(F)cc3c2C1` (centres undefined) gave a melting point of 115 to 117 °C.
`Cc1nc(C(F)F)c(C(=O)Nc2ccccc2-c2ccc(Cl)cc2)s1`: the melting point is 144 °C.
With `Clc1ccc2nc(-c3ccccc3)oc2n1`, the melting point lay in the range of 150 to 151 °C.
Take `NC(=O)CC1CN=C(c2cc3cccc(NS(=O)(=O)c4cccs4)c3[nH]2)S1` (centres undefined): the melting point lay within 130 to 131 °C.
`COc1ccc(-c2nn(CC=Cc3ccc(Cl)cc3)c(=O)cc2-c2ccc(OC)c(F)c2)cc1` registered a melting point of 109 to 111 °C.
In turn, `COc1ccc(C2=NN(Cc3ccc(C(=O)NC4CCCC4)cc3)C(=O)CC2)cc1OC` returned a melting point of 147 °C.
As for `N#Cc1ccc(N2CCC(CC(=O)O)CC2)c2ccccc12`, the melting point lay in the range of 195 to 196 °C.
The same measure for `Nc1cncc(C(O)c2ccccc2)c1` (centres undefined): 92 to 94 °C; for `OCCN1CCCNC1=S`: 112 to 114 °C; for `Cc1cc(Oc2c(Cl)cc(C(F)(F)F)cc2Cl)nn1C(=O)NC(C)C`: 103 to 105 °C.
In the case of `Cc1cc(Oc2ccccc2)c(S(C)(=O)=O)cc1C(=O)N=C(N)N`, the melting point was 248 to 250 °C.
Regarding `COC(=O)c1c(C)nc2c(C)cc(C)cc2c1-c1ccccc1Cl`, the melting point lay within 119 to 120 °C.
Regarding `O=C(C=Cc1ccc(CNC2CCCCC2)cc1)Nc1ccc(-c2ccc(Cl)cc2)cc1`, the melting point fell in the range of 247 to 248 °C.
The same measure for `CNC(=O)Nc1cccc(C(=O)Nc2ccccn2)c1`: 163 to 164 °C; for `Nc1ncc(-c2cc(N3CCOCC3)nc(-n3c(C(F)F)nc4ccccc43)n2)cn1`: 281 to 285 °C.
On to `CN1CCCC1CCOc1ccc(-c2nnc(CSCCOc3ccccc3)o2)cc1` (centres undefined), for which the melting point lay in the range of 46 to 50 °C.
As to `COc1ccc(C(=O)CC(C)(C)C(=O)O)c2c1OC(C)(C)C2`, the melting point lay within 159 to 160 °C.
With `O=C(CC1CCCCC1)Nc1c(Cl)ccc2nc(N3CC[C@H](NS(=O)(=O)C(F)(F)F)C3)ccc12`, the melting point lay within 178 to 200 °C.
`CC(C)c1ccc(C(C)C)n1NC1=NCCN1` had a melting point of 230 to 232 °C.
To `CCOC(=O)C1=C(COCC#CC(N)=O)NC(C)=C(C(=O)OC)C1c1cccc(Cl)c1Cl` (centres undefined) belongs 147 to 148 °C.
Turning to `CC(O)C(=O)NCCNC(=O)C(C)O` (centres undefined), the melting point was 188 °C.
`COCC1CN(c2ccc(C3CCC(=O)CC3)cc2)C(=O)O1` (racemic) showed a melting point of 114 to 116 °C.
For the compound `O=C(O)CCCCCCCn1cnc(-c2ccccc2)c1-c1ccccc1`, the melting point came out at 130 °C.
As to `FC(F)(F)c1n[nH]c(C(F)(F)F)n1`, the melting point was 74 to 75 °C.
Take `CCOC(=O)CCCCCCCn1c(-c2ccccc2)c(-c2ccccc2)[nH]c1=O`: the melting point lay within 78 to 79 °C.
Compound `CCC(CC)n1cc(Cl)nc(N2CCc3cc(OC)cc(Br)c32)c1=O` had a melting point of 130 to 132 °C.
For the compound `CCCCNC(=O)Oc1c(C)cc(Oc2ccc(C)cc2)cc1C`, the melting point lay within 110 to 112 °C.
`CCCN(CCCCc1coc2c(OC)cccc12)C1COc2c(F)ccc(C(N)=O)c2C1` (centres undefined): the melting point was 99 to 110 °C.
To `CC(C)(C)OC(=O)N1CCN(c2cccc3ccoc23)CC1` belongs 98 to 100 °C; to `C=CCC(CC)(CC)C(=O)O[C@H]1C[C@H](O)C=C2C=C[C@H](C)[C@H](CC[C@@H]3C[C@@H](O)CC(=O)O3)[C@H]21`, 107 to 108 °C.
Compound `CN(C)c1cccc2c(S(=O)(=O)Nc3cnc(Br)c(Cl)n3)cccc12` showed a melting point of 180 to 182 °C.
For `Nc1cc(-n2cc(C(=O)O)c(=O)c3cc(F)c(F)c(Cl)c32)ncc1F`, the melting point worked out at 280 °C.
In turn, `CC1(C)C2CC1C(=O)CC2=O` yielded a melting point of 80 to 81 °C.
For `Cc1cn(C2CC(O)C(CO[Si](C)(C)C(C)(C)C)O2)c(=O)[nH]c1=O` (centres undefined), the melting point was 193 to 194 °C.
`CCNC(=O)N1CCc2cc(S(=O)(=O)N3CC(c4ccccc4)NC3=O)ccc21` (centres undefined) came in with a melting point of 127 °C.
As to `COc1cc(-c2nc(NC(C)C)c3c(C)c(C#N)sc3n2)cc(OC)c1OC`, the melting point lay in the range of 191 to 193 °C.
`CCN(CC)c1ccc(N(c2ccc(N(CC)CC)cc2)C2(c3ccc(N(C)C)cc3C)OC(=O)c3ccccc32)cc1` (centres undefined) came in with a melting point of 59 to 72 °C.
The compound `C/C(=C\c1ccc(OC(C)C)cc1Oc1ncc(C(F)(F)F)cc1Cl)C(=O)O` returned a melting point of 114 °C.
Compound `FC(F)(F)c1cc(I)cc(OCc2ccc3ccccc3c2)c1` had a melting point of 65 to 66 °C.
In turn, `O=C(O)c1ccc(NCCc2ccccc2)cc1` gave a melting point of 123 to 125 °C.
`COC(c1nnco1)c1ccccc1COc1ccc(Cl)cc1C` (centres undefined) gave a melting point of 68 to 70 °C.
To `Cc1ccc(NC(N)=S)c(-c2ccccc2)c1` belongs 175 to 177 °C.
`C#CCOc1cc(-c2ncnc(C(F)F)c2Cl)c(F)cc1Cl` came in with a melting point of 93 to 95 °C.
The compound `CNC(=O)N1C(=O)C(=O)c2cc(F)ccc21` showed a melting point of 230 to 232 °C.
As for `CC(C)C(C)C=CC(C)C1CCC2C1(C)CCC1C23C=CC2(CC(O)CCC12C)OO3` (centres undefined), the melting point fell in the range of 165 to 169 °C.
To `O=C(Nc1cc(F)c(-c2cccnc2)c(F)c1)OCc1ccccc1` belongs 188 to 190 °C; to `OCC(CO)OCn1c(Cl)nc2c(Cl)c(Cl)c(Cl)c(Cl)c21`, 155 °C.
In turn, `CCCCNC(=O)Nc1ccc2c(c1Cl)C(c1ccccc1F)=NCC(=O)N2C` gave a melting point of 196 to 198 °C.
